{"source": "patent US7799794B2", "about": "“Treatment for cardiovascular disease” (Merck Sharp & Dohme Corp., priority 2000, dated 2010)", "type_in_all_cases": "in vivo, rat", "key": {"Sprague-Dawley rats [1]": {"test_system": "Sprague-Dawley rats", "test": "Renal findings at 11 weeks: immunohistochemistry and BUN (Example 3)", "procedure": "(§1) Rats were placed on the low sodium diet with oxonic acid for 7 weeks, and then were matched based on uric acid level and blood pressure in various groups to either receive allopurinol, have the oxonic acid withdrawn from the diet, or continue the oxonic acid/low salt diet. A control group of six rats were placed on the lowsodium diet alone for 11 weeks. All of these rats were sacrificed at week 11.\n(§2) Am J Clin Pathol 1957; 28:152.]. Serum blood urea nitrogen was measured by a standard kit (Sigma, St Louis, Mo.).\nRenal biopsies were fixed in Methyl-Carnoy's, 10% formalin or 100% ethanol and embedded in paraffin. The presence of uric acid crystals was evaluated by staining 4-μm ethanol-fixed sections with de Galantha and modified Von Kossa stains. Kidney tissue from rats with acute uric acid nephropathy, induced with oxonic acid and uric acid administration was used as a positive control [Stavric, B., Johnson, W. J., and Grice, H. C., Uric acid nephropathy: An experimental model, Proc. Soc. Exp. Biol. Med. 130: 512-16 (1969).]. Light microscopy was performed in 4-μm sections of Methyl-Carnoy's fixed tissue stained with periodic acid Schiff (PAS) reagent or with hematoxylin and eosin.\nMethyl-Carnoy's fixed tissue sections were analyzed by indirect immunoperoxidase [Lombardi, D., Gordon , K. L., Polinsky, P., Suga, S., Schwartz, S. M., and Johnson, R. J. Salt sensitive hypertension develops after transient exposure to angiotensin II. Hypertension 33:1013-1019, 1999] staining with the following primary antibodies: OP199, a goat polyclonal antibody against osteopontin (OPN)(gift of C. Giachelli, Univ of Wash., Seattle); ED-1, a monoclonal antibody to rat monocytes and macrophages (Serotec); goat antihuman type III collagen (Southern Biotechnology Associates Inc, Birminghan Ala.); and anti-renin, a mouse antibody to human renin (Sanofi Recherche, Montpellier, France). Sections were incubated with a secondary antibody followed by horseradish peroxidase-conjugated avidin D (Vector Laboratories, Burlingame, Calif.), diaminobenzidine (Sigma) with or without nickel chloride as a chromogen, and counsterstained with methyl green.\nNOS1 was detected on formalin fixed tissue sections with a rabbit anti-rat neuronal nitric oxide synthase (Transduction Laboratories, Lexington, Ky.), followed by a biotinylated secondary antibody, diaminobenzidine with nickel chloride and counterstained with nuclear fast red.\nAll quantification was performed blinded. The tubular expression of osteopontin (OPN), which is a sensitive marker of tubulointerstitial injury, was calculated as the percent of renal cortex occupied by OPN-positive tubules [Lombardi, D., Gordon, K. L., Polinsky, P., Suga, S., Schwartz, S. M., and Johnson, R. J. Salt sensitive hypertension develops after transient exposure to angiotensin II. Hypertension 33:1013-1019, 1999]. Utilizing computer-assisted image analysis software (Optimas V6.2, Media Cybernetics, Silver Springs, Md.) and digitized images, the percent of area occupied by OPN positive tubules per 4 mm^2 field at a magnification of 50× was measured and the mean percent area calculated for each biopsy. The interstitial deposition of collagen type III was calculated as the % of renal cortex occupied by collagen III, noted by immunostaining, by computer image analysis. The mean number of interstitial macrophages (ED-1+cells) in each biopsy was calculated in a blinded manner by counting the total number of positive interstitial cortical cells in 20 sequentially selected 0.25 mm^2 grids at 200× magnification. Renin expression was quantified by the number of glomeruli with positive staining for juxtaglomerular renin using a minimum of 100 glomeruli in each biopsy as previously described [Eng, E., et al., Renal proliferation and phenotypic changes in rats with two-kidney, one-clip Goldblatt hypertension. […]"}, "Sprague-Dawley rats [2]": {"test_system": "Sprague-Dawley rats", "test": "Enalapril or L-Arginine in hyperuricemic rats on low salt diet: blood pressure (Example 4)", "conditions": "hyperuricemic control rats, OA + low salt diet", "procedure": "Rats were placed on either low salt diet, low salt diet with 2% oxonic acid, low salt diet with oxonic acid and enalapril (1 mg/kg/d in drinking water), or low salt diet with oxonic acid and L-Arginine (1% in drinking water).\n(§3) Am J Physiol 268:F1 164-76, 1995]."}, "Sprague-Dawley rats [3]": {"test_system": "Sprague-Dawley rats", "test": "Allopurinol intervention or oxonic acid withdrawal in hyperuricemic rats: blood pressure (Example 3)", "conditions": "oxonic acid withdrawn at 7 weeks, LSD continued", "description": "as §1, §3, §2"}}}
{"smiles": "O=C(O)c1nc(=O)[nH]c(=O)[nH]1", "note": "[oxonic acid]", "values": [{"measurement": "BUN", "setting": "Sprague-Dawley rats [1]; OA withdrawal at 7 weeks", "result": "18.8 ± 0.8", "unit": "mg/dL"}, {"measurement": "ED-1 (macrophages)", "setting": "Sprague-Dawley rats [1]; OA withdrawal at 7 weeks", "result": "33.0 ± 1.6", "unit": "cells/mm2"}, {"measurement": "NOS-1", "setting": "Sprague-Dawley rats [1]; OA withdrawal at 7 weeks", "result": "83.1 ± 10.8 positive cells/100 glomeruli"}, {"measurement": "OPN", "setting": "Sprague-Dawley rats [1]; OA withdrawal at 7 weeks", "result": "1.08 ± 0.06", "unit": "% increase"}, {"measurement": "Renin", "setting": "Sprague-Dawley rats [1]; OA withdrawal at 7 weeks", "result": "50.5 ± 2.1", "unit": "% positive JGA"}, {"measurement": "Type III collagen", "setting": "Sprague-Dawley rats [1]; OA withdrawal at 7 weeks", "result": "8.9 ± 1.6", "unit": "%"}, {"measurement": "OPN", "setting": "Sprague-Dawley rats [1]; low NaCl diet, allopurinol added at 7 weeks, control 0.7 ± 0.08", "result": "1.33 ± 0.14", "unit": "% increase"}, {"measurement": "Type III collagen", "setting": "Sprague-Dawley rats [1]; low NaCl diet, allopurinol added at 7 weeks, control 7.2 ± 0.6", "result": "13.9 ± 0.6", "unit": "%"}, {"measurement": "BUN", "setting": "Sprague-Dawley rats [1]; low NaCl diet, allopurinol added at 7 weeks, control 16.6 ± 0.9", "result": "24.1 ± 1.7", "unit": "mg/dL"}, {"measurement": "ED-1 (macrophages)", "setting": "Sprague-Dawley rats [1]; low NaCl diet, allopurinol added at 7 weeks, control 27.8 ± 1.4", "result": "36.5 ± 1.4", "unit": "cells/mm2"}, {"measurement": "Renin", "setting": "Sprague-Dawley rats [1]; low NaCl diet, allopurinol added at 7 weeks, control 41.0 ± 1.9", "result": "58.4 ± 0.8", "unit": "% positive JGA"}, {"measurement": "NOS-1", "setting": "Sprague-Dawley rats [1]; low NaCl diet, allopurinol added at 7 weeks, control 104.4 ± 11.5", "result": "65.6 ± 7.1 positive cells/100 glomeruli"}, {"measurement": "increase in systolic blood pressure over the 7 week dietary period", "setting": "Sprague-Dawley rats [2]", "result": "approximately 20 mm Hg"}, {"measurement": "blood pressure and serum uric acid in hypertensive, hyperuricemic rats", "setting": "Sprague-Dawley rats [3]", "result": "reduction in the blood pressure in association with a fall in serum uric acid values"}]}
